Legend:
Format in all cases: in vivo
Alopecurus myosuroides = experiment: Herbicidal action against Alopecurus myosuroides, single ingredients and combinations, with Colby expected action
Excerpt: (§1) A synergistic effect is present in the case of herbicides whenever the herbicidal action of the active ingredient combination is greater than that of the individual active ingredients applied.
(§2) The anticipated action for a given combination of two herbicides can be calculated as follows (cf. COLBY, S. R.: “Calculating synergistic and antagonistic responses of herbicide combinations”, Weeds 15, pages 20-22, 1967):
(§3) If • X=% damage by herbicide A (active ingredient of formula I) at p kg/ha application rate • and • Y=% damage by herbicide B (active ingredient of Formula II) at q kg/ha application rate • and • E=the expected damage of the herbicides A and B at p and q kg/ha application rate, • then E=X+Y−(X*Y/100).

Amaranthus rudis = experiment: Herbicidal action against Amaranthus rudis, single ingredients and combinations, with Colby expected action
Excerpt: as §1, §2, §3

Galium aparine = experiment: Herbicidal action against Galium aparine, single ingredients and combinations, with Colby expected action; conditions: Table A-3 (first); application rate 3.75 g a.i./ha
Excerpt: as §1, §2, §3

CS(=O)(=O)c1ccc(C(=O)C2C(=O)CCCC2=O)c(Cl)c1COCC1CCCO1 (centres unmarked) [Compound (B.7)]
Action against Alopecurus myosuroides (%) (Alopecurus myosuroides; Table A-1, application rate 3.75 g a.i./ha): 0% | Action against Alopecurus myosuroides (%) (Alopecurus myosuroides; Table A-3 (second), application rate 7.5 g a.i./ha): 0% | Action against Amaranthus rudis (%) (Amaranthus rudis; Table A-2, application rate 3.75 g a.i./ha): 35% | Action against Amaranthus rudis (%) (Amaranthus rudis; Table A-4, application rate 7.5 g a.i./ha): 0% | Action against Galium aparine (%) (Galium aparine): 0%

From patent US20080004180A1, “Novel Herbicides Based on Substituted Thien-3-Yl-Sulphonylamino(Thio) Carbonyl-Triazolin(Thi)Ones and 4-Hppd-Inhibitors” (Bayer Cropscience AG, priority 2004, published 2008)
